For series [1], the system named is nicotinic acetylcholine receptors. Particulars: blocking effect; Kharrat et al. 2008, Dragunow et al. 2005; cited from earlier work.
The subject of series [2] is tau phosphorylated on Thr212 and Ser214. The series is described as follows: Western blot of tau phosphorylated on Thr212 and Ser214 (AT100 antibody) in 3×Tg-AD cortical cultures. As to conditions: 3×Tg transgenic cultures, 50 nM, 3 to 7 days; p<0.001, n=3. Format: cell-based, mouse. The source says: (§1) In order to carry out the experiments of the present invention, either an in vitro cortical neuronal model with simultaneous overexpression of tau and β-amyloid, obtained from a model of Alzheimer's disease in triple-transgenic (3×Tg-AD or 3×Tg) mice, obtainable via the detailed procedure in the international patent application WO2003/053136 and provided by the title holders of this application, or an in vitro cortical neuronal model obtained from non-transgenic (Non Tg) mice.
(§2) The effect of gymnodimine on overexpression of β-amyloid and tau hyperphosphorylation was determined by the Western blot technique. Primary neuronal cultures were treated with 50 nM gymnodimine for between 3 and 7 days of culture. The cells were then processed following the usual protocols for Western blot. For Western blot studies, protein expression was evaluated using 6E10 anti-β-amyloid primary antibodies at a dilution of 1:500, AT8 anti-Tau (tau phosphorylated on Ser202, dilution 1:1000) and AT100 anti-tau (tau phosphorylated on Thr212 and Ser214, dilution 1:1000). […] Total protein concentration was determined by Bradford's method using bovine albumin as standard. […] The membranes were incubated with the primary antibodies, washed, and then incubated with a secondary antibody linked to HRP; the immunoreactivity was detected by chemiluminescence. […]

Series [3] has as its system tau phosphorylated on Ser202. The series is described as follows: Western blot of tau phosphorylated on Ser202 (AT8 antibody) in 3×Tg-AD cortical cultures. Format: cell-based, mouse. As to conditions: 3×Tg transgenic cultures, 50 nM, 3 to 7 days; p<0.05, n=3.
From the text: as §1, §2
In general terms: In western blotting, separated proteins are transferred to a membrane and probed.

Another series concerns total tau. Description: Western blot of total tau basal levels (Tau46 antibody) in control neurones. Format: cell-based, mouse. As to conditions: control (non-transgenic) neurones, 50 nM; mean ± standard error, two experiments. How it is done:
(§3) The effect of gymnodimine on overexpression of β-amyloid and tau hyperphosphorylation was determined by the Western blot technique. Primary neuronal cultures were treated with 50 nM gymnodimine for between 3 and 7 days of culture. The cells were then processed following the usual protocols for Western blot. For Western blot studies, protein expression was evaluated using 6E10 anti-β-amyloid primary antibodies at a dilution of 1:500, AT8 anti-Tau (tau phosphorylated on Ser202, dilution 1:1000) and AT100 anti-tau (tau phosphorylated on Thr212 and Ser214, dilution 1:1000). For Western blot assays, the neuronal cultures treated with gymnodimine were washed with cold phosphate buffer and lysed in 50 mM Tris-HCl buffer (pH 7.4) containing 150 mM NaCl, 1 mM EDTA, 1% Triton X-100, 2 mM DTT, 2.5 mM PMSF, 40 mg/ml aprotinin, 4 mg/ml leupeptin, 5 mM NaF, 1 mM Na3VO4, 1 mg/ml pepstatin A and 1 mg/ml benzamidine. Total protein concentration was determined by Bradford's method using bovine albumin as standard. […] The membranes were incubated with the primary antibodies, washed, and then incubated with a secondary antibody linked to HRP; the immunoreactivity was detected by chemiluminescence. […]
(§4) The effect of gymnodimine on basal phosphorylation of tau was determined by Western blot techniques. […]

The conditions of series [4]: cited from earlier work.
Series [5] concerns tau phosphorylated on site Ser202. Description: Western blot of basal tau phosphorylated on Ser202 in control neurones. Format: cell-based, mouse. Particulars: control (non-transgenic) neurones, 50 nM. As for the experimental part: as §3, §4
A further series has as its system β-amyloid. The series is described as follows: Western blot of intracellular β-amyloid (6E10 antibody) in 3×Tg-AD cortical cultures. Format: cell-based, mouse. Particulars: 3×Tg-AD neocortical cultures, 50 nM, 3 to 7 days; p<0.005, n=3.
From the text: as §1, §2

For another series, the system named is cortical neurones. Description: Alamar Blue fluorescence viability assay in primary cortical cultures. As to conditions: for Viability of cortical neurones: 72 hours in culture, mean ± standard error, three experiments. Format: cell-based, mouse.
From the text: as §1
The primary cortical cultures in the present invention were obtained from 3×Tg-AD mouse embryos of 15-17 days gestation and the wild cultures were obtained from non-3×Tg control mouse embryos of the same strain. The effect of the compounds used in this invention on cellular viability was estimated by a fluorescence assay using the Alamar Blue viability indicator. To carry out the assay, primary cortical cultures seeded on 96-well plates were used. The neuronal cells were incubated with gymnodimine, which was added to the culture medium at different concentrations, and the effect on in vitro neuronal viability at different treatment times was determined. The maximum concentration of gymnodimine evaluated was 100 nM and the concentration of Alamar blue was 10%. The volume of the reaction used was 200 μl. Fluorescence was measured at wavelengths of 530 nm (excitation) and 590 nm (emission).

We go through one compound from US20120245223A1, “USE OF GYMNODIMINE, ANALOGUES AND DERIVATIVES FOR THE TREATMENT AND/OR PREVENTION OF NEURODEGENERATIVE DISEASES ASSOCIATED WITH TAU AND B-AMYLOID” (priority 2009, published 2012).

Take `CC1=C[C@@H](C2=C(C)[C@@H]3/C=C(\C)[C@@H](O)CC[C@H]4C[C@@H](C)[C@@H](O4)/C(C)=C/CCC4=NCCC[C@@]43CC2)OC1=O` [Gymnodimine, gymnodimine]: the “Binding to nicotinic acetylcholine receptors” value in series [1] was “high affinity binding”. Further, the “Tau phosphorylation on Thr212 and Ser214 (Western blot, AT100)” value in series [2] is on record as “significant reduction of tau phosphorylation”. Further, the “Tau phosphorylation on Ser202 (Western blot, AT8)” value in series [3] is “significant reduction of tau phosphorylation”. The “Total tau basal levels” value in the series with total tau is on record as 111 ± 3.9% control. Also, the “Toxicity intracerebrally versus intraperitoneally” value in series [4] (introduced intracerebrally compared with intraperitoneally) is “much higher when it is introduced intracerebrally”. In addition, the “Toxicity when orally administered” value in series [4] (oral administration, Munday et al. 2004) is listed as “significantly reduced toxicity”. In addition, the “Levels of tau phosphorylated on site Ser202” value in series [5] is on record as 95% control. Besides, the “Expression of intracellular β-amyloid (Western blot, 6E10)” value with β-amyloid was “significant reduction of overexpression of β-amyloid”. In addition, the “Viability of cortical neurones” value in the series with cortical neurones (2.5 nM) turned out to be 97.0 ± 4.9 % control; with cortical neurones (5 nM), 102.8 ± 0.3 % control; in the series with cortical neurones (10 nM), 105.6 ± 5.9 % control; in the series with cortical neurones (25 nM), 105.1 ± 1.09 % control; with cortical neurones (50 nM), 102.9 ± 1.4 % control; with cortical neurones (100 nM), 101.8 ± 1.7 % control. Moreover, in the series with cortical neurones (up to maximum concentration of 100 nM, neuronal model), the “Effect on cell viability (in words)” value is on record as “does not cause a reduction in cell viability”.
